# Measured values taken from patent US8148388B2, “2,4 (4,6) pyrimidine derivatives” (Janssen Pharmaceutica, N.V., priority 2004, dated 2012).
# Legend:
# Format in all cases: biochemical
# Flt3 (h) = Flt3 (h) (Homo sapiens, UniProt P36888); test: Flt3 human kinase assay (glass-fiber filter); conditions: test concentration of 10^−6M; for inhibition at 1 µM: read-out: C6 score (inhibition of Flt3 human)
# Experimental: (§1) The in vitro inhibition of a panel of kinases was assessed using either the glass-fiber filter technology as described by Davies, S. P. et al., Biochem J. (2000), 351; p. 95-105.
# (§2) In the glass-fiber filter technology the activity of the kinase of interest is measured using an appropriate substrate that is incubated with the aforementioned kinase protein in the presence of (^33P) radiolabeled ATP. (^33P) Phosphorylation of the substrate is subsequently measured as radioactivity bound on a glass fiber-filter.
# (§3) All kinases are pre-diluted to a 10× working concentration prior to addition into the assay. The composition of the dilution buffer for each kinase is detailed below.
# (§4) In a final reaction volume of 25 μl, Flt3 (h) (5-10 mU) is incubated with 8 mM MOPS pH 7.0, 0.2 mM EDTA, 50 μM […], 10 mM MgAcetate and [γ-^33P-ATP] (specific activity approx. 500 cpm/pmol, concentration as required). The reaction is initiated by the addition of the MgATP mix. After incubation for 40 minutes at room temperature, the reaction is stopped by the addition of 5 μl of a 3% phosphoric acid solution. 10 μl of the reaction is then spotted onto a P30 filtermat and washed three times for 5 minutes in 75 mM phosphoric acid and once in methanol prior to drying and scintillation counting.
# Fms (h) = Fms (h) (Homo sapiens, UniProt P07333); test: Fms human kinase assay (glass-fiber filter); conditions: test concentration of 10^−6M; read-out: C7 score (inhibition of Fms human)
# Experimental: as §1, §2, §3
# as §4, with “μl, Fms” for “μl, Flt3”, “EDTA, 250” for “EDTA, 50”
# Fes (h) = Fes (h) (Homo sapiens, UniProt P07332); test: Fes human kinase assay (glass-fiber filter); conditions: test concentration of 10^−6M
# Experimental: as §2, §3
# (§5) In a final reaction volume of 25 μl, Fes (h) (5-10 mU) is incubated with 8 mM MOPS pH 7.0, 0.2 mM EDTA, 0.1 mg/ml poly(Glu, Tyr) 4:1, 10 mM MgAcetate and [γ-^33P-ATP] (specific activity approx. 500 cpm/pmol, concentration as required). The reaction is initiated by the addition of the MgATP mix. After incubation for 40 minutes at room temperature, the reaction is stopped by the addition of 5 μl of a 3% phosphoric acid solution. 10 μl of the reaction is then spotted onto a Filtermat A and washed three times for 5 minutes in 75 mM phosphoric acid and once in methanol prior to drying and scintillation counting.
# Lyn (h) = Lyn (h) (Homo sapiens, UniProt P07948); test: Lyn human kinase assay (glass-fiber filter); conditions: test concentration of 10^−6M; for inhibition at 1 µM: read-out: C10 score (inhibition of Lyn human)
# Experimental: as §2, §3
# as §5, with “[…]” for “μl, Fes”, “50” for “8”, “Tris” for “MOPS”, “7.5, 0.1” for “7.0, 0.2”, “EGTA, 0.1 mM Na3VO4, 0.1% O-mercaptoethanol,” for “EDTA,”, “Filtennat” for “Filtermat”
# Yes (h) = Yes (h) (Homo sapiens, UniProt P07947); test: Yes human kinase assay (glass-fiber filter); conditions: test concentration of 10^−6M; for inhibition at 1 µM: read-out: C11 score (inhibition of Yes human)
# Experimental: as §2, §3
# as §5, with “Yes” for “Fes”, “[…],” for “cpm/pmol,”
# Lck (h) = Lck (h) (Homo sapiens, UniProt P06239); test: Lck human kinase assay (glass-fiber filter); conditions: test concentration of 10^−6M; for inhibition at 1 µM: read-out: C9 score (inhibition of Lck human)
# Experimental: (§6) The in vitro inhibition of a panel of kinases was assessed using either the glass-fiber filter technology as described by Davies, S. P. et al., Biochem J. […] In the glass-fiber filter technology the activity of the kinase of interest is measured using an appropriate substrate that is incubated with the aforementioned kinase protein in the presence of (^33P) radiolabeled ATP. (^33P) Phosphorylation of the substrate is subsequently measured as radioactivity bound on a glass fiber-filter. All kinases are pre-diluted to a 10× working concentration prior to addition into the assay. The composition of the dilution buffer for each kinase is detailed below. [table] […] The reaction is initiated by the addition of the MgATP mix. […] 10 μl of the reaction is then spotted onto a P30 filtermat and washed three times for 5 minutes in 75 mM phosphoric acid and once in methanol prior to drying and scintillation counting.
# Abl (h) = Abl (h) (Homo sapiens, UniProt P00519); test: Abl human kinase assay (glass-fiber filter); conditions: test concentration of 10^−6M; for inhibition at 1 µM: read-out: C1 score (inhibition of Abl human)
# Experimental: as §2, §3
# (specific activity approx. 500 cpm/pmol, concentration as required). The reaction is initiated by the addition of the MgATP mix. After incubation for 40 minutes at room temperature, the reaction is stopped by the addition of 5 μl of a 3% phosphoric acid solution. 10 μl of the reaction is then spotted onto a P30 filtermat and washed three times for 5 minutes in 75 mM phosphoric acid and once in methanol prior to drying and scintillation counting.
# cSRC (h) = cSRC (h) (Homo sapiens, UniProt P12931); test: cSRC human kinase assay (glass-fiber filter); conditions: test concentration of 10^−6M; for inhibition at 1 µM: read-out: C3 score (inhibition of cSRC human)
# Experimental: as §6, with “below.” for “below. [table]”
# GSK3B (h) = GSK3B (h) (Homo sapiens, UniProt P49841); test: GSK3β human kinase assay (glass-fiber filter); conditions: test concentration of 10^−6M; for inhibition at 1 µM: read-out: C8 score (inhibition of GSK3β human)
# Experimental: as §1, §2, §3
# In a final reaction volume of 25 μl, GSK3B (h) (5-10 mU) is incubated with 8 mM MOPS pH 7.0, 0.2 mM EDTA, 20 μM […](p)EDEEE (phospho GS2 peptide), 10 mM MgAcetate and [γ-^33P-ATP] (specific activity approx. 500 cpm/pmol, concentration as required). The reaction is initiated by the addition of the MgATP mix. After incubation for 40 minutes at room temperature, the reaction is stopped by the addition of 5 μl of a 3% phosphoric acid solution. 10 μl of the reaction is then spotted onto a P30 filtermat and washed three times for 5 minutes in 50 mM phosphoric acid and once in methanol prior to drying and scintillation counting.
# EGFR (h) = EGFR (h) (Homo sapiens, UniProt P00533); test: EGFR human kinase assay (glass-fiber filter); conditions: test concentration of 10^−6M
# Experimental: as §2, §3
# as §5, with “EGFR” for “Fes”, “EDTA, 10 mM MnCl2,” for “EDTA,”
# Sequence of Abl (h) (P00519 whole entry): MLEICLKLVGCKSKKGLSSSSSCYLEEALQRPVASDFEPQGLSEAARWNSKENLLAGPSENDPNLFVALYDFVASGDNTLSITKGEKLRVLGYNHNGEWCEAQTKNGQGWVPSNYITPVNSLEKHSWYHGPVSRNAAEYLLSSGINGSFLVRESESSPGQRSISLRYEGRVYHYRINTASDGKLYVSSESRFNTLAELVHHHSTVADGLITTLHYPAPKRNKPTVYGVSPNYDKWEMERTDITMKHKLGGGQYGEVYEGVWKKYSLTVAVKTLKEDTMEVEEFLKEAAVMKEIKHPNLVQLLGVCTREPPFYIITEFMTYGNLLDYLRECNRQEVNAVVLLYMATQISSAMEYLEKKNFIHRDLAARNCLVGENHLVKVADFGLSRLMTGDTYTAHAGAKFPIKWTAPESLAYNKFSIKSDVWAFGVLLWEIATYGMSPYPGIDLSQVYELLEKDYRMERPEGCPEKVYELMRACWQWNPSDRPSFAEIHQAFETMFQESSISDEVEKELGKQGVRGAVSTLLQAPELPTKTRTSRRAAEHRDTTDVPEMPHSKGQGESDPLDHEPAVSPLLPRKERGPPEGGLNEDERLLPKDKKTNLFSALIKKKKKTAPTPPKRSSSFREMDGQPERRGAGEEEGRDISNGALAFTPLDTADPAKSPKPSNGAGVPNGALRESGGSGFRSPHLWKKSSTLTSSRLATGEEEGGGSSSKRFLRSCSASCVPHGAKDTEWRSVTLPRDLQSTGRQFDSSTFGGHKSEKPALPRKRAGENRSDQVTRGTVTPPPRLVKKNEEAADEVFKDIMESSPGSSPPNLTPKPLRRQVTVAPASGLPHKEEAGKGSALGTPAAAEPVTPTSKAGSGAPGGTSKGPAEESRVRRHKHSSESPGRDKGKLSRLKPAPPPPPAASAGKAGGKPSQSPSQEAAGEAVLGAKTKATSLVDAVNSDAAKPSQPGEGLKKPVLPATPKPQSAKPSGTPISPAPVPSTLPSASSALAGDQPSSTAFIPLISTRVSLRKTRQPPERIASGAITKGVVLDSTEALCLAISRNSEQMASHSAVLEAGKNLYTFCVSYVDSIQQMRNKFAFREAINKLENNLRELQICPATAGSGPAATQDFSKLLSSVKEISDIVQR
# Sequence of GSK3B (h) (P49841 whole entry): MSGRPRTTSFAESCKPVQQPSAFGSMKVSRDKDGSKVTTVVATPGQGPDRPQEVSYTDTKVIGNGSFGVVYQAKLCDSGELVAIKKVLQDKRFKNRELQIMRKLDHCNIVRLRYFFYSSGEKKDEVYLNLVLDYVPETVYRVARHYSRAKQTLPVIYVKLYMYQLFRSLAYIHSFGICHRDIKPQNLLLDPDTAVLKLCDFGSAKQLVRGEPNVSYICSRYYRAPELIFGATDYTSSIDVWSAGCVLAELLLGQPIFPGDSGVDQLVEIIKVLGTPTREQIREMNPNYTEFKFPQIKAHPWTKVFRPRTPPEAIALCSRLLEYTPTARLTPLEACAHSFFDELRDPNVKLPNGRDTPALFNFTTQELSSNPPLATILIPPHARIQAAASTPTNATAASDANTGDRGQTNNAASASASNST
# Sequence of cSRC (h) (P12931 whole entry): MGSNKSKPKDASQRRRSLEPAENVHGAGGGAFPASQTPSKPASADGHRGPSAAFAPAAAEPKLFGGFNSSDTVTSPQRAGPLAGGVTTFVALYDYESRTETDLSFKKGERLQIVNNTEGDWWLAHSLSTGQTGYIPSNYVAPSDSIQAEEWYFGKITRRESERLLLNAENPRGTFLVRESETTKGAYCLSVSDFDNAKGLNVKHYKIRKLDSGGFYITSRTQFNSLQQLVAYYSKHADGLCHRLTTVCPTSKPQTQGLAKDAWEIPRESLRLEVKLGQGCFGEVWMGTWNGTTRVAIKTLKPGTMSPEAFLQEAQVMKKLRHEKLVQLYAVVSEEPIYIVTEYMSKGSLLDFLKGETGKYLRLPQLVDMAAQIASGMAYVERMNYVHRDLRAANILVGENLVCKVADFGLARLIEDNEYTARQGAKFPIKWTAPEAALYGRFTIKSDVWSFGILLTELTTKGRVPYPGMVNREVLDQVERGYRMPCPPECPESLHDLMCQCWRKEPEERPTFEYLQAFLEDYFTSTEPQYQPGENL
# Sequence of Flt3 (h) (P36888 27-993): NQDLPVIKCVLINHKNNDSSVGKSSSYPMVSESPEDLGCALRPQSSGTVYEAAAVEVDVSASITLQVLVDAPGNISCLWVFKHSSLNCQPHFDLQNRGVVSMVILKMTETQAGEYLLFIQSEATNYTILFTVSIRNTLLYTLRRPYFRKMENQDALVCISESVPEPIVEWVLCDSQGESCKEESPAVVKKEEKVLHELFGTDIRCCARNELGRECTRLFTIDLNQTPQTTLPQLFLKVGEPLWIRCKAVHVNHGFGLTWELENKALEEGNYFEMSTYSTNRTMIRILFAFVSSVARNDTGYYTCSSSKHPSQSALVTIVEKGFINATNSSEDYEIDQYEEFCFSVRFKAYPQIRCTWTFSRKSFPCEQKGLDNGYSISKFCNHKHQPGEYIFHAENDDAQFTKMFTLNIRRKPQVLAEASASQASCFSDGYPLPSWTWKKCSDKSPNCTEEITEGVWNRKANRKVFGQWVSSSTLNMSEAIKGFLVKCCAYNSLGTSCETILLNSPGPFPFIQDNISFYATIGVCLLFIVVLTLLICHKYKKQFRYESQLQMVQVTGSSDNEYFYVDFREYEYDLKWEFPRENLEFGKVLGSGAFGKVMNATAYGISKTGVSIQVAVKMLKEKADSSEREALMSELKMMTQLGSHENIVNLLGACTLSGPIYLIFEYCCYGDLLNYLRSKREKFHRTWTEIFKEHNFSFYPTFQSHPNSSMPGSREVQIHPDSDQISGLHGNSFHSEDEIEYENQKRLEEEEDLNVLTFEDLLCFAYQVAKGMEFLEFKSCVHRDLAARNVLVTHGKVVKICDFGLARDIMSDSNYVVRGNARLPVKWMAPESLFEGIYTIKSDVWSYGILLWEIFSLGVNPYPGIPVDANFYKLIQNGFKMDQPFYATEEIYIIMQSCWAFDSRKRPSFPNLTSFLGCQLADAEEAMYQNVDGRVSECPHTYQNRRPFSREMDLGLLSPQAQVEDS
# Sequence of Yes (h) (P07947 whole entry): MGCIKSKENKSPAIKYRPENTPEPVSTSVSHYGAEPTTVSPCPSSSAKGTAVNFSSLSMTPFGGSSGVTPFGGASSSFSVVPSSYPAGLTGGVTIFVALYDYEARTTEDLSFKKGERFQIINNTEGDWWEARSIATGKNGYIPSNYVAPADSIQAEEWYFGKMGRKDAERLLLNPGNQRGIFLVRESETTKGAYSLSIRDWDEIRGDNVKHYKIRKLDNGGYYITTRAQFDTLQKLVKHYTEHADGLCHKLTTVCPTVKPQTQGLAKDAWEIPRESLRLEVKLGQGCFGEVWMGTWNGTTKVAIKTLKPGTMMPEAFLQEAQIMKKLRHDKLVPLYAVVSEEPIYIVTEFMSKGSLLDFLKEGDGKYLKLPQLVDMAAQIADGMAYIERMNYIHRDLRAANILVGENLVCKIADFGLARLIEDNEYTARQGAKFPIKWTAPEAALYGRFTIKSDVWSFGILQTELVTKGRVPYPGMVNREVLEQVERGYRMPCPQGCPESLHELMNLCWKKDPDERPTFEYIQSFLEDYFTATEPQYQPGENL
# Sequence of EGFR (h) (P00533 25-1210): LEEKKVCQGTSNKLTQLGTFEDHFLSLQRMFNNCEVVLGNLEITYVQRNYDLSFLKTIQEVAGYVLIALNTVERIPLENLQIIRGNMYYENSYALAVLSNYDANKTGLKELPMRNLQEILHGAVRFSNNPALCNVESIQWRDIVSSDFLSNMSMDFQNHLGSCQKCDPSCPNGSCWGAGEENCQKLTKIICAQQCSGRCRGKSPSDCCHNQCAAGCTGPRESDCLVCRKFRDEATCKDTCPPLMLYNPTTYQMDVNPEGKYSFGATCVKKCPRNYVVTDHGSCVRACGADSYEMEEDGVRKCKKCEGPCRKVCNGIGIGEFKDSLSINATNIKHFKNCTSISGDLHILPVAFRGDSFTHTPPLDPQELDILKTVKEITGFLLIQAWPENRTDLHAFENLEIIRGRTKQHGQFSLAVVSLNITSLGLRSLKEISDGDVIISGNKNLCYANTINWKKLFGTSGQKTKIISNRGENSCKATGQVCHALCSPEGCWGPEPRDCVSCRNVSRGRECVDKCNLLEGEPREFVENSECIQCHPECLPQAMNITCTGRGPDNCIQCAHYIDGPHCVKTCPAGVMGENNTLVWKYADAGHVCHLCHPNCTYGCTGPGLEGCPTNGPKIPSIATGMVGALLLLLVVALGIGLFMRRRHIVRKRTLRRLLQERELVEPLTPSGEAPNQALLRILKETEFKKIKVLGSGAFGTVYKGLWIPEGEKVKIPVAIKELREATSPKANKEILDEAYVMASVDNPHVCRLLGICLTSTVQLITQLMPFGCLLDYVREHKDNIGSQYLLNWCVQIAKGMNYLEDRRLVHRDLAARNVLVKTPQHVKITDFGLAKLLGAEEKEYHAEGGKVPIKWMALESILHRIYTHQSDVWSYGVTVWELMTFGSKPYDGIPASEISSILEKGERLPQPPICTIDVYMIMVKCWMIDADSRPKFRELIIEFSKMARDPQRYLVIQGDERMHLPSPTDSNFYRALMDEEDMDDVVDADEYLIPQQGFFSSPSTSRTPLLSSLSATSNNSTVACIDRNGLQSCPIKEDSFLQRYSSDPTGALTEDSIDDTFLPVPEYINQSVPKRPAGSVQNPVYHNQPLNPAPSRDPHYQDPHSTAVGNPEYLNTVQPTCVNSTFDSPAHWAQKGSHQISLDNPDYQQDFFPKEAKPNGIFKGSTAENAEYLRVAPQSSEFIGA
inhibition at 1 µM (Flt3 (h)),inhibition at 1 µM (Fms (h)),inhibition at 1 µM (Fes (h); read-out: C4 score (inhibition of Fes human)),inhibition at 1 µM (Lyn (h)),inhibition at 1 µM (Yes (h)),inhibition at 1 µM (Lck (h)),inhibition at 1 µM (Abl (h)),inhibition at 1 µM (cSRC (h)),inhibition at 1 µM (GSK3B (h)),inhibition at 1 µM (EGFR (h); read-out: C4 score (inhibition of EGFR human)),Structure (SMILES),C6 score (inhibition of Flt3 human) (Flt3 (h)),C4 score (inhibition of Fes human) (Fes (h)),C10 score (inhibition of Lyn human) (Lyn (h)),C11 score (inhibition of Yes human) (Yes (h)),C9 score (inhibition of Lck human) (Lck (h)),C4 score (inhibition of EGFR human) (EGFR (h)),C3 score (inhibition of cSRC human) (cSRC (h)),C8 score (inhibition of GSK3β human) (GSK3B (h)),C1 score (inhibition of Abl human) (Abl (h))
> 80%,30 to 60%,10 to 30%,10 to 30%,30 to 60%,30 to 60%,10 to 30%,30 to 60%,60 to 80%,,"N#Cc1cnc2nc1Nc1cccc(c1)OCCCCOc1cccc(c1)N2 [Compound 2, 14,19-dioxa-2,4,8,26-tetraazatetracyclo[18.3.1.1˜3,7˜.1˜9,13˜]hexacosa-1(24),3,5,7(26),9,11,13(25),20,22-nonaene-6-carbonitrile]",,,,,,,,,
,,,,,,,,,,"COc1ccc2cc1OCCCNC(=O)[C@@H]1CCCN1Cc1cc(F)c(Cl)cc1Nc1nc(ncc1C#N)N2 [Compound 6, 21,17-metheno-15,11-nitrilo-1H,16H-pyrrolo[2,1-s][13,1,5,7,17,20]benzoxapentaazacyclotricosine-12-carbonitrile, 8-chloro-7-fluoro-2,3,5,10,23,24,25,26,27,27a-decahydro-20-methoxy-27-oxo-, (27aS)-]",2 (Score 2=30-60% inhibition),1 (Score 1=10-30% inhibition),1 (Score 1=10-30% inhibition),2 (Score 2=30-60% inhibition),2 (Score 2=30-60% inhibition),1 (Score 1=10-30% inhibition),1 (Score 1=10-30% inhibition),2 (Score 2=30-60% inhibition),
30 to 60%,10 to 30%,,10 to 30%,30 to 60%,30 to 60%,10 to 30%,10 to 30%,10 to 30%,10 to 30%,"O=C1NCCCCOc2cccc(c2)Nc2ccnc(n2)Nc2cccc1c2 [Compound 19, 14-oxa-2,4,8,19,27-pentaazatetracyclo[19.3.1.1~3,7~.1~9,13~]heptacosa-1(25),3,5,7(27),9,11,13(26),21,23-nonaen-20-one]",,,,,,,,,
,,,,,,,,,,"COc1ccc2cc1OCCNC(=O)[C@@H]1CCCN1Cc1cc(F)c(Cl)cc1Nc1nc(ncc1C#N)N2 [Compound 31, 21,17-metheno-15,11-nitrilo-16H-pyrrolo[2,1-r][13,1,5,7,16,19]benzoxapentaazacyclodocosine-12-carbonitrile, 8-chloro-7-fluoro-1,2,3,5,10,23,24,25,26,26a-decahydro-20-methoxy-26-oxo-, (26aS)-]",2 (Score 2=30-60% inhibition),,4 (Score 4=>80% inhibition),4 (Score 4=>80% inhibition),3 (Score 3=60-80% inhibition),2 (Score 2=30-60% inhibition),2 (Score 2=30-60% inhibition),1 (Score 1=10-30% inhibition),2 (Score 2=30-60% inhibition)
,,,,,,,,,,"COc1cc2cc(c1)OCCCCCCOc1ccc(Br)cc1Nc1cc(ncn1)N2 [Compound 40, 1H,7H-6,2: 8,12-dimetheno-13,20,1,3,5,7-benzodioxatetraazacyclodocosine, 23-bromo-14,15,16,17,18,19-hexahydro-10-methoxy-]",1 (Score 1=10-30% inhibition),,,4 (Score 4=>80% inhibition),1 (Score 1=10-30% inhibition),4 (Score 4=>80% inhibition),,1 (Score 1=10-30% inhibition),
